Legend:
Type in all cases: cell-based
[1] = biological target: T1, OCT2 (mOCT2) (Mus musculus, UniProt O70577); experiment: fluorescent substrate uptake in cells overexpressing mOCT2; uptake impaired in OCT1/[…](−/−) satellite glial cells
T1 construct: gene Slc22a2
T1 sequence (O70577 1-553): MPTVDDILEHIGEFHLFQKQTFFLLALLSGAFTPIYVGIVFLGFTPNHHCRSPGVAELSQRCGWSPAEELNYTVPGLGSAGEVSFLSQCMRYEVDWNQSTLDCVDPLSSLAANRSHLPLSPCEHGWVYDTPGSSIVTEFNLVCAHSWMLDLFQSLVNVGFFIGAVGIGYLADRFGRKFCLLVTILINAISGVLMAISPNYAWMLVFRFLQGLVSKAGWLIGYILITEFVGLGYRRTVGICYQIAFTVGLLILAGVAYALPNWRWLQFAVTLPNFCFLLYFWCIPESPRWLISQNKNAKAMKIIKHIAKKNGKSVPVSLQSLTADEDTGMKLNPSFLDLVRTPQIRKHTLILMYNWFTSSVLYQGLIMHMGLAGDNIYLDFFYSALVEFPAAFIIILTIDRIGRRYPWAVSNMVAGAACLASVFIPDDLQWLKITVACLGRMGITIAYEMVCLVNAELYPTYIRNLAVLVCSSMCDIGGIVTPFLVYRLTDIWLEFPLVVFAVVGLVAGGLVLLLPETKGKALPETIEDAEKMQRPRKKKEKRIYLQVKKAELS

[2] = biological target: T2, OCT2 (hOCT2) (Homo sapiens, UniProt O15244); experiment: fluorescent substrate uptake in HEK293 and Hela cells overexpressing hOCT2
T2 construct: gene SLC22A2
T2 sequence (O15244 1-555): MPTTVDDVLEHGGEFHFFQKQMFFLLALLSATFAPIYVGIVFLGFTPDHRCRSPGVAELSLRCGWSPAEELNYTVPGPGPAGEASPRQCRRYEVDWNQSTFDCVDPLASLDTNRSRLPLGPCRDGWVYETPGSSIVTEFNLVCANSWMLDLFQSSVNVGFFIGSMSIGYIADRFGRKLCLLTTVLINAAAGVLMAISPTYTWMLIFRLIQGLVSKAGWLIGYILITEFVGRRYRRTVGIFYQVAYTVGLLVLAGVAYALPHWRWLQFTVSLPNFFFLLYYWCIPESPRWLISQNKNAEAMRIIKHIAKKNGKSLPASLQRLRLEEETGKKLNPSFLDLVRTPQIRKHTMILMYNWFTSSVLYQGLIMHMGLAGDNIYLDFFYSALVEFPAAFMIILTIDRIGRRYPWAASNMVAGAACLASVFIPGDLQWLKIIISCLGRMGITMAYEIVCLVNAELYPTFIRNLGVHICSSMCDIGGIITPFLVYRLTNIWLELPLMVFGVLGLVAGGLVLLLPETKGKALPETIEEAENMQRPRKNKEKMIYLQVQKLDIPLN

[3] = biological target: T3, OCT2 (rOCT2) (Rattus norvegicus, UniProt Q9R0W2); experiment: inhibition of TEA uptake in HEK293 cells overexpressing rOCT2
T3 construct: gene Slc22a2
T3 sequence (Q9R0W2 1-555): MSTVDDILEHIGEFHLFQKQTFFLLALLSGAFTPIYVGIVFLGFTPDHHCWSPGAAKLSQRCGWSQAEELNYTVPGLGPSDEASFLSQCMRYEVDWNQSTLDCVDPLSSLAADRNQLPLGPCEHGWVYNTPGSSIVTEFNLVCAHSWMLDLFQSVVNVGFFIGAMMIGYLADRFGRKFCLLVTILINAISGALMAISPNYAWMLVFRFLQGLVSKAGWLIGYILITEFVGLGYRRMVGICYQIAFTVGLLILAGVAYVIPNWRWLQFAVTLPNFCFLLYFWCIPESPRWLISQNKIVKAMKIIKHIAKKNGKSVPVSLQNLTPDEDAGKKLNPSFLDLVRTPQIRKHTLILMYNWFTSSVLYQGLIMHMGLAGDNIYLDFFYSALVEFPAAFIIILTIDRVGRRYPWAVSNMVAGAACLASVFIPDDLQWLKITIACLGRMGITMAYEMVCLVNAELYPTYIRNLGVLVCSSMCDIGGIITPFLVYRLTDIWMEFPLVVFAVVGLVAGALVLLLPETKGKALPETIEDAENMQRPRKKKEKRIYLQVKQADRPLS

[4] = biological target: T2, OCT2 (hOCT2); experiment: inhibition of ASP uptake in Hela cells overexpressing hOCT2 ([…] in HEK293 cells)
[5] = biological target: T1, OCT2 (mOCT2); experiment: inhibition of TEA, oxaliplatin and ASP uptake in HEK293 cells overexpressing mOCT2; reversible on washout

Row | SMILES | fluorescent substrate uptake in cells overexpressing mOCT2; uptake impaired in O [1] | fluorescent substrate uptake in HEK293 and Hela cells overexpressing hOCT2 [2] | inhibition of TEA uptake in HEK293 cells overexpressing rOCT2 [3] | IC50 [4] | inhibition of TEA, oxaliplatin and ASP uptake in HEK293 cells overexpressing mOC [5]
1 | CN(C)c1ccc(C=Cc2cc[n+](C)cc2)cc1 [4-(4-(dimethylamino)styryl)-N-methylpyridinium iodide] | ASP was taken up in OCT2-proficient cells and uptake was significantly impaired under OCT2-deficient conditions | Concentration-dependent inhibition of OCT2-dependent ASP transport by duloxetine in HEK293 and Hela cells overexpressing hOCT2 | – | – | –
2 | CNCC[C@H](Oc1cccc2ccccc12)c1cccs1 [duloxetine] | – | – | These studies confirmed that duloxetine inhibits the transport of TEA by mouse, rat, and human OCT2. | 3.98 µM | These studies confirmed that duloxetine inhibits the transport of TEA by mouse, rat, and human OCT2.
